According to PubChem BioAssay AID256 (DTP/NCI, 2004):
Several values for one entry are separate records, joined by “and”; a condition that tells them apart may be missing. Identical values can stand only once. Inconclusive results and toxic doses are left out. How the source made its calls: active means survival T/C of 150% or more; inactive means T/C below 125% in these data. Non-standard residues stand in square brackets, D forms with d. Residues, ends and D or L forms follow the SMILES beside them. ξ: configuration not given here. *: point of attachment. Trt = c1ccc(C(c2ccccc2)(c2ccccc2)*)cc1; Cbz = O=C(OCc1ccccc1)*; OtBu = CC(C)(C)O*; ξC = NC(CS)C(=O)O

Tested on: CD2F1 mice, L1210 leukemia ip, survival T/C
Test: NCI In Vivo Anticancer Drug Screen. Data for tumor model L1210 Leukemia (intraperitoneal) in CD2F1 (CDF1) mice
Conditions: endpoint: mean survival time, higher = longer survival
In short: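 Activity against a transplanted murine tumor was judged by comparing the compound group with a vehicle group. The outcome in the treated animals was divided by that in the controls.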

[1] = dose: 100.0 mg/kg/injection, schedule: Q04DX002 (ip), vehicle: saline with Tween-80
[2] = dose: 50.0 mg/kg/injection, schedule: Q01DX009 (ip), vehicle: saline with Tween-80
[3] = dose: 100.0 mg/kg/injection, schedule: Q01DX001 (ip), vehicle: saline
[4] = dose: 100.0 mg/kg/injection, schedule: Q01DX009 (ip), vehicle: saline with Tween-80
[5] = dose: 200.0 mg/kg/injection, schedule: Q01DX001 (ip), vehicle: saline
[6] = dose: 200.0 mg/kg/injection, schedule: Q01DX009 (ip), vehicle: saline with Tween-80
[7] = dose: 400.0 mg/kg/injection, schedule: Q01DX001 (ip), vehicle: saline
[8] = dose: 25.0 mg/kg/injection, schedule: Q01DX009 (ip), vehicle: saline with Tween-80
[9] = dose: 12.5 mg/kg/injection, schedule: Q01DX009 (ip), vehicle: saline with Tween-80
[10] = dose: 100.0 mg/kg/injection, schedule: Q04DX003 (ip), vehicle: saline with Tween-80
[11] = dose: 200.0 mg/kg/injection, schedule: Q04DX003 (ip), vehicle: saline with Tween-80
[12] = dose: 400.0 mg/kg/injection, schedule: Q04DX003 (ip), vehicle: saline with Tween-80
[13] = dose: 400.0 mg/kg/injection, schedule: Q01DX009 (ip), vehicle: saline with Tween-80

Measured: T/C

COc1ccccc1N=Nc1c(O)n(-c2ccc(Cl)cc2)c(=S)n(-c2ccccc2)c1=O
inactive: dose: 100.0 mg/kg/injection, schedule: Q01DX001 (ip), vehicle: saline with Tween-80 97 % of control | [1] 98 % of control | dose: 200.0 mg/kg/injection, schedule: Q01DX001 (ip), vehicle: saline with Tween-80 97 % of control | dose: 200.0 mg/kg/injection, schedule: Q04DX002 (ip), vehicle: saline with Tween-80 94 % of control | dose: 400.0 mg/kg/injection, schedule: Q01DX001 (ip), vehicle: saline with Tween-80 103 % of control | dose: 400.0 mg/kg/injection, schedule: Q04DX002 (ip), vehicle: saline with Tween-80 102 % of control

O=C(Oc1ccc(OC(=O)c2ccccc2)c2c1C(=O)C(CBr)=C(CBr)C2=O)c1ccccc1
inactive: dose: 0.75 mg/kg/injection, schedule: Q01DX009 (ip), vehicle: water 93 % of control | dose: 1.5 mg/kg/injection, schedule: Q01DX009 (ip), vehicle: water 101 % of control | dose: 3.0 mg/kg/injection, schedule: Q01DX009 (ip), vehicle: water 93 % of control and 97 % of control | dose: 6.0 mg/kg/injection, schedule: Q01DX009 (ip), vehicle: water 93 % of control and 95 % of control | dose: 12.0 mg/kg/injection, schedule: Q01DX009 (ip), vehicle: water 93 % of control | dose: 12.5 mg/kg/injection, schedule: Q01DX009 (ip), vehicle: water 86 % of control | dose: 24.0 mg/kg/injection, schedule: Q01DX009 (ip), vehicle: water 90 % of control | dose: 25.0 mg/kg/injection, schedule: Q01DX009 (ip), vehicle: water 91 % of control | dose: 50.0 mg/kg/injection, schedule: Q01DX009 (ip), vehicle: water 87 % of control | dose: 100.0 mg/kg/injection, schedule: Q01DX009 (ip), vehicle: water 100 % of control | dose: 200.0 mg/kg/injection, schedule: Q01DX009 (ip), vehicle: water 86 % of control

O=c1ccc2ccc(O)cc2o1
inactive: [2] 101 % of control | [3] 103 % of control | [4] 93 % of control | [5] 108 % of control | [6] 97 % of control | [7] 103 % of control

COC(=O)c1csc(C2OC(CO)C(O)C2O)n1 (centres undefined)
inactive: dose: 25.0 mg/kg/injection, schedule: Q01DX005 (ip), vehicle: water 107 % of control | dose: 50.0 mg/kg/injection, schedule: Q01DX005 (ip), vehicle: water 103 % of control | dose: 100.0 mg/kg/injection, schedule: Q01DX005 (ip), vehicle: water 101 % of control | dose: 200.0 mg/kg/injection, schedule: Q01DX005 (ip), vehicle: water 101 % of control | dose: 400.0 mg/kg/injection, schedule: Q01DX005 (ip), vehicle: water 102 % of control

COc1ccccc1NC(=O)Oc1ccc(C2CCCCC2)cc1
inactive: [8] 108 % of control | dose: 25.0 mg/kg/injection, schedule: Q04DX002 (ip), vehicle: saline with Tween-80 100 % of control | [2] 97 % of control | dose: 50.0 mg/kg/injection, schedule: Q04DX002 (ip), vehicle: saline with Tween-80 100 % of control | [4] 104 % of control | [1] 92 % of control and 98 % of control

Cc1cc(Cl)ccc1NC(=O)N1CCCC(C)C1 (centres undefined)
inactive: [9] 95 % of control | [8] 102 % of control | [2] 91 % of control

COc1cccc(CCN)c1
inactive: dose: 18.75 mg/kg/injection, schedule: Q01DX009 (ip), vehicle: saline sonified 98 % of control | dose: 37.5 mg/kg/injection, schedule: Q01DX009 (ip), vehicle: saline sonified 97 % of control | dose: 37.5 mg/kg/injection, schedule: Q01DX009 (ip), vehicle: saline with Tween-80 108 % of control | dose: 75.0 mg/kg/injection, schedule: Q01DX009 (ip), vehicle: saline sonified 97 % of control | dose: 75.0 mg/kg/injection, schedule: Q01DX009 (ip), vehicle: saline with Tween-80 103 % of control

C/C(CCc1ccccc1)=N/O
inactive: dose: 100.0 mg/kg/injection, schedule: Q01DX009 (ip), vehicle: other 100 % of control | dose: 200.0 mg/kg/injection, schedule: Q01DX009 (ip), vehicle: other 103 % of control | dose: 400.0 mg/kg/injection, schedule: Q01DX009 (ip), vehicle: other 101 % of control

CC(C)(C)OC(=O)CNC(=O)CNC(=O)CNC(=O)C(CSC(c1ccccc1)(c1ccccc1)c1ccccc1)NC(=O)OCc1ccccc1 (centres undefined) (Cbz-[ξC](Trt)GGG-OtBu)
inactive: [10] 101 % of control | [11] 95 % of control | [12] 92 % of control

COC1OC(COC(c2ccccc2)(c2ccccc2)c2ccccc2)C(O)C(O)C1O (centres undefined)
inactive: [3] 100 % of control | [4] 106 % of control | [5] 97 % of control | [6] 96 % of control | [7] 92 % of control | [13] 98 % of control

O=C1C=CC(=Nc2ccccc2Cl)O1
inactive: [10] 103 % of control | [11] 101 % of control | [12] 100 % of control

O=CNc1ccc2c(c1)C(Br)c1ccccc1-2 (centres undefined)
inactive: [4] 93 % of control | [10] 97 % of control | [11] 100 % of control | [12] 88 % of control

c1ccc2c(c1)c1ccccc1n2CCCCn1c2ccccc2c2ccccc21
inactive: [9] 95 % of control | [8] 87 % of control | [2] 101 % of control and 102 % of control | [4] 97 % of control | [6] 93 % of control

CC(=O)OCc1ccc2ccccc2c1
inactive: [4] 100 % of control | [6] 102 % of control | [13] 118 % of control
